“And” between values parts separate entries of the source, which are not always exact repeats. Identical values can stand only once. Like-named read-outs stand apart in the source and are kept apart here.
Experiments:
MDA-MB-453 cells [1] = experiment: Cell-cycle analysis by DNA flow cytometry; format: cell-based, human; settings: for Sub G1 (%) / G1 (%) / G2/M (%) / S (%): 48 hrs; for G1 / G2 / S / SubG1: 24 hours
Experimental: Synchrony: To synchronize the cells, 3×10^5 cells were plated onto 10 cm dishes and grown for 2 days in DMEM supplemented with 10% fetal bovine serum.
After incubation for 1-3 days, the supernatant was collected, and the cells were trypsinized, collected, and washed with phosphate buffered saline (PBS) containing 5% FBS. Cell pellets were re-suspended in 1 ml of PBS plus 5% FBS. Thereafter, 5 ml of 70% ethanol were added drop-wise, while vortexing the tube, and the mixture was stored at 4° C. Cells were centrifuged, washed with PBS plus 5% FBS, and re-suspended in 400 μl of propidium iodide (0.1 mg/ml) (Sigma Chemical Co.). 400 μl (2 mg/ml) of RNase (Sigma Chemical Co.) were added, and the cells were incubated in the dark at room temperature for 30 min.

HCC1569 cells = experiment: MTT assay, 96 hours; format: cell-based; settings: Homo sapiens
Na^+-K^+-ATPase [2] = system: T1, Na^+-K^+-ATPase; experiment: Combination of agents on Na^+-K^+-ATPase activity, combination index; format: biochemical
T1 construct: Combination index; actein (μM); Combination index; actein; ATPase activity; other: actein 0.8 μM alone; other: digitox

BT474 cells = experiment: Cell proliferation, cell count (Coulter Counter); format: cell-based; settings: Homo sapiens
MDA-MB-453 cells [3] = experiment: Combination of agents, MTT assay, combination index
Experimental: Calculating the Combination Index. To determine the Combination Index (CI), 1) the Na^+-K^+-ATPase enzyme or 2) MDA-MB-453 cells were exposed to all combinations of 3, 4 or 5 concentrations of each of the agents tested and a solvent control. […] The results of the enzymatic assay of ATPase or MTT assay were analyzed for possible synergistic effects using the median effect principle. Variable ratios of drugs were employed and mutually exclusive equations were assumed.
Calculating the Combination Index.
The simvastatin was obtained from Sigma of St. Louis, Mo. The concentrations tested in the present example were 0, 0.2, 2, 5, and 20 μg/ml actein and 0, 0.8, 4, 20 and 40 μg/ml simvastatin.

Na^+-K^+-ATPase [4] = target: T1, Na^+-K^+-ATPase; experiment: Enzymatic assay of adenosine 5′-triphosphatase; format: biochemical; settings: read-out: IC50 (50% inhibition of Na^+-K^+-ATPase activity); purified enzyme, in vitro
Experimental: Enzymatic assay of adenosine 5′-triphosphatase. The enzymatic assay of ATPase (adenosine 5′-triphosphatase, EC 3.6.1.3) followed the Sigma Prod. […] [P] was determined by the Taussky-Shorr method.

MDA-MB-453 cells [5] = experiment: Western-blot analysis; format: cell-based, human; settings: for IκB band intensity relative to β-actin / IκκB band intensity relative to β-actin / PPAR-γ band intensity relative to β-actin / p-Her2 level (WB) / cyclin D1 band intensity relative to β-actin: MDA-MB-453; for increase in level of p-Src: serum-starved MDA-MB-453, 80 μg/ml, 30 min
Experimental: Cells were treated for increasing times with approximately the IC50 concentration, or twice the IC50 concentration, of actein. The cells were harvested, washed with PBS, and sonicated in extraction buffer according to the procedure of Han et al. (Han et al., Stable overexpression of cyclin D1 in a human mammary epithelial cell line prolongs the S-phase, and inhibits growth. Oncogene, 10:953-61, 1995). The lysates were subjected to electrophoresis on a 10% or 12.5% SDS-polyacrylamide gel, and then transferred to a polyvinylidene difluoride (PVDF) membrane. The membrane was blocked with milk protein, and incubated with a solution containing the primary antibody against the following: cyclin D1 (Upstate Biotechnology, Lake Placid, N.Y.), p21^cip1 (Oncogene Research Products, Darmstadt, Germany), ppRb (ser 780, Medical and Biological Laboratories, Nagoya, Japan), cdk4 (Upstate Biotechnology, Lake Placid, N.Y.), EGFR (clone-74, Transduction Laboratories, Lexington, Ky.), p-EGFR (phospho (Y1173)-EGFR) (Cell Signaling, Beverly, Mass.), actin (Sigma, St. Louis, Mo.), Her-2/neu (Cell Signaling, Beverly, Mass.), or phospho-(Y1248)-Her-2/neu (Cell Signaling, Beverly, Mass.)), IκB (Sant Cruz Biotechnolgy, Santa Cruz, Calif.), IκκB (Sigma, St. Louis, Mo.) and PPARγ (Santa Cruz biotechnology, Santa Cruz, Calif.) (Masuda et al., Epigallocatechin-3-gallate inhibits activation of HER-2/neu and downstream signaling pathways in human head and neck and breast carcinoma cells. Clin. Cancer Res., 9: 3486-91, 2003). The membrane was washed, and incubated with horseradish peroxidase conjugated secondary antibody.
Protein bands were visualized with the ECL-enhanced chemiluminescence system, according to the manufacturer's directions (Amersham Pharmacia Biotech) (Sgambato et al., Overexpression of p27 (Kip1) inhibits the growth of both normal and transformed human mammary epithelial cells. Cancer Research, 58:3448-54, 1998). The staining intensities of the visualized blots were quantified using NIH image software. For each protein, the relative band intensities were determined by comparing treated samples with untreated controls. These values were then normalized, using β-actin as an internal control.
Western blot analysis. […] To assay activation of p-Src, cells were allowed to attach for 24 h, incubated in media without serum for 24 h; the medium was replaced with media without serum with DMSO, actein or digtioxin.
Western blot analysis was performed as previously described. […] The membrane was incubated with the primary antibodies, cyclin D1 (Santa Cruz Biotechnology; Santa Cruz, Calif.), p-Src, Akt, p-Akt, ERK2 or p-Erk2 (Cell signaling, Beverly, Mass.); β-actin was used as a loading control.
Western blot analysis was performed as described previously.

[6] = Homo sapiens, MDA-MB-453, read-out: percent viable cells

CC(=O)O[C@@H]1C[C@@]23C[C@@]24CC[C@H](O[C@@H]2OC[C@@H](O)[C@H](O)[C@H]2O)C(C)(C)[C@@H]4CC[C@H]3[C@]2(C)C[C@@H]3O[C@]4(C[C@@H](C)[C@@H]3[C@@]12C)O[C@H](O)[C@@]1(C)O[C@@H]41 [actein]
Sub G1 (%) (MDA-MB-453 cells [1]; (a) DMEM + […] FBS 48 hrs, then actein 20 μg/ml): 1.8% | G1 (%) (MDA-MB-453 cells [1]; (a) […] FBS, actein 20 μg/ml): 79.6% | G2/M (%) (MDA-MB-453 cells [1]; (a) […] FBS, actein 20 μg/ml): 10.0% | S (%) (MDA-MB-453 cells [1]; (a) […] FBS, actein 20 μg/ml): 8.5% | G1 (%) (MDA-MB-453 cells [1]; (a) […] FBS, actein 40 μg/ml): 83.8% | G2/M (%) (MDA-MB-453 cells [1]; (a) […] FBS, actein 40 μg/ml): 9.0% | S (%) (MDA-MB-453 cells [1]; (a) […] FBS, actein 40 μg/ml): 4.9% | Sub G1 (%) (MDA-MB-453 cells [1]; (a) […] FBS, actein 40 μg/ml): 2.2% | G1 (%) (MDA-MB-453 cells [1]; (b) Actein 2 μg/mL): 69.8% | G2/M (%) (MDA-MB-453 cells [1]; (b) Actein 2 μg/mL): 18.6% | S (%) (MDA-MB-453 cells [1]; (b) Actein 2 μg/mL): 11.0% | Sub G1 (%) (MDA-MB-453 cells [1]; (b) Actein 2 μg/mL): 0.9% | G1 (%) (MDA-MB-453 cells [1]; (b) Actein 20 μg/mL): 70.8% | G2/M (%) (MDA-MB-453 cells [1]; (b) Actein 20 μg/mL): 18.2% | S (%) (MDA-MB-453 cells [1]; (b) Actein 20 μg/mL): 9.7% | Sub G1 (%) (MDA-MB-453 cells [1]; (b) Actein 20 μg/mL): 1.6% | G1 (%) (MDA-MB-453 cells [1]; (c) Actein 20 μg/mL): 59.2% | G2/M (%) (MDA-MB-453 cells [1]; (c) Actein 20 μg/mL): 29.5% | S (%) (MDA-MB-453 cells [1]; (c) Actein 20 μg/mL): 8.6% | Sub G1 (%) (MDA-MB-453 cells [1]; (c) Actein 20 μg/mL): 2.7% | IC50 (HCC1569 cells; unit inferred, read-out: IC50): 25 µM | ATPase activity (Na^+-K^+-ATPase [2]; actein 0.8 μM alone): 95.1% | IC50 (BT474 cells; BT-474, BT474, unit inferred, read-out: IC50): 23.6 µM | viability at 0.2 µg/mL (MDA-MB-453 cells [3]; [6]): 97.8% | viability at 2 µg/mL (MDA-MB-453 cells [3]; [6]): 75.8% | viability at 5 µg/mL (MDA-MB-453 cells [3]; [6]): 70.9% | cell survival (MDA-MB-453 cells [3]; actein 2 ug/ml alone (simvastatin study)): 68.2% | IC50 (Na^+-K^+-ATPase [4]): 11.2 µM and 16 µM | IκB band intensity relative to β-actin (MDA-MB-453 cells [5]; 3 h, 20 μg/ml): 1.2 fold | IκκB band intensity relative to β-actin (MDA-MB-453 cells [5]; 3 h, 20 μg/ml): 1.79 fold | PPAR-γ band intensity relative to β-actin (MDA-MB-453 cells [5]; 3 h, 20 μg/ml): 1.39 fold | p-Her2 level (WB) (MDA-MB-453 cells [5]; 3 h, 20 μg/ml): 0.71 fold | IκB band intensity relative to β-actin (MDA-MB-453 cells [5]; 3 h, 40 μg/ml): 1.09 fold | IκκB band intensity relative to β-actin (MDA-MB-453 cells [5]; 3 h, 40 μg/ml): 1.78 fold | PPAR-γ band intensity relative to β-actin (MDA-MB-453 cells [5]; 3 h, 40 μg/ml): 0.93 fold and 0.92 fold | cyclin D1 band intensity relative to β-actin (MDA-MB-453 cells [5]; 3 h, 40 μg/ml): 0.93 fold | p-Her2 level (WB) (MDA-MB-453 cells [5]; 3 h, 40 μg/ml): 0.86 fold | IκκB band intensity relative to β-actin (MDA-MB-453 cells [5]; 10 h, 20 μg/ml): 0.48 fold | IκκB band intensity relative to β-actin (MDA-MB-453 cells [5]; 10 h, 40 μg/ml): 0.59 fold | IκB band intensity relative to β-actin (MDA-MB-453 cells [5]; 24 h, 20 μg/ml): 0.81 fold | IκκB band intensity relative to β-actin (MDA-MB-453 cells [5]; 24 h, 20 μg/ml): 1.06 fold | PPAR-γ band intensity relative to β-actin (MDA-MB-453 cells [5]; 24 h, 20 μg/ml): 1.3 fold | cyclin D1 band intensity relative to β-actin (MDA-MB-453 cells [5]; 24 h, 20 μg/ml): 1.3 fold | p-Her2 level (WB) (MDA-MB-453 cells [5]; 24 h, 20 μg/ml): 0.81 fold | IκB band intensity relative to β-actin (MDA-MB-453 cells [5]; 24 h, 40 μg/ml): 0.53 fold | IκκB band intensity relative to β-actin (MDA-MB-453 cells [5]; 24 h, 40 μg/ml): 0.95 fold | PPAR-γ band intensity relative to β-actin (MDA-MB-453 cells [5]; 24 h, 40 μg/ml): 0.67 fold | cyclin D1 band intensity relative to β-actin (MDA-MB-453 cells [5]; 24 h, 40 μg/ml): 0.44 fold | p-Her2 level (WB) (MDA-MB-453 cells [5]; 24 h, 40 μg/ml): 0.53 fold | increase in level of p-Src (MDA-MB-453 cells [5]): 1.5 fold

C[C@H]1O[C@@H](O[C@H]2[C@@H](O)C[C@H](O[C@H]3[C@@H](O)C[C@H](O[C@H]4CC[C@@]5(C)[C@H](CC[C@@H]6[C@@H]5CC[C@]5(C)[C@@H](C7=CC(=O)OC7)CC[C@]65O)C4)O[C@@H]3C)O[C@@H]2C)C[C@H](O)[C@@H]1O [digitoxin]
G1 (MDA-MB-453 cells [1]; digitoxin 0.2 μg/mL): 46.50 (1.98) % | G2 (MDA-MB-453 cells [1]; digitoxin 0.2 μg/mL): 19.05 (0.07) % | S (MDA-MB-453 cells [1]; digitoxin 0.2 μg/mL): 27.65 (0.64) % | SubG1 (MDA-MB-453 cells [1]; digitoxin 0.2 μg/mL, SD in parentheses): 6.77 (1.06) % | G1 (MDA-MB-453 cells [1]; digitoxin 2.0 μg/mL): 41.90 (2.26) % | G2 (MDA-MB-453 cells [1]; digitoxin 2.0 μg/mL): 32.10 (1.27) % | S (MDA-MB-453 cells [1]; digitoxin 2.0 μg/mL): 17.80 (0.42) % | SubG1 (MDA-MB-453 cells [1]; digitoxin 2.0 μg/mL): 5.78 (1.02) % | IC50 (HCC1569 cells): 0.12 µM | ATPase activity (Na^+-K^+-ATPase [2]; digitoxin 0.2 μM alone): 87.8% | ATPase activity (Na^+-K^+-ATPase [2]; digitoxin 0.8 μM alone): 53.6% | IC50 (BT474 cells; BT-474, BT474, Coulter counter): 0.03 µg/mL and 40 nM | IC50 (BT474 cells; BT-474, BT474, unit inferred): 0.039 µM | viability at 0.01 µg/mL (MDA-MB-453 cells [3]; Homo sapiens, MDA-MB-453, read-out: percent viable cells, digitoxin 0.01 μg/ml alone (actein study)): 62.8% | viability at 0.01 µg/mL (MDA-MB-453 cells [3]; Homo sapiens, MDA-MB-453, read-out: percent viable cells, digitoxin 0.01 μg/ml alone (paclitaxel study)): 73% | IC50 (Na^+-K^+-ATPase [4]): 0.8 µM | increase in level of p-Src (MDA-MB-453 cells [5]): 1.5 fold

Reference: US20120208776A1 (priority 2002, published 2012)
